From US20090131513A1, “ANTI-INFLAMMATORY MODALITIES” (Novogen Research Pty Ltd., priority 2005, published 2009) come the findings set out here.

The test system of the data set is Sprague Dawley rats. Description: Oral toxicity of Compound 1 administered daily for 11 days. The format is in vivo. The note with it: 300 mg/kg and 1000 mg/kg oral daily for 11 days in CMC 0.1%. As for the experimental part:
Oral toxicity of Compound 1 when administered daily for 11 days was investigated. Compound 1 in CMC 0.1% as administered at the very high doses of 300 mg/kg and the limit dose of 1000 mg/kg to groups of four Sprague Dawley rats (two of each gender). Vehicle was administered to a third group.
The formulation of Compound 1 in CMC 0.1% was stable over a seven day period at both 4° C., 25° C. and 40° C. Fresh batches of Compound 1 were supplied after day seven. Bodyweights were measured immediately before administration, then at day eight and again at culling on day 12. All rats were observed daily for signs of toxicity throughout the experimental period. At necropsy, gross examination of the external surface of the body, all orifices and the thoracic and abdominal cavities and their contents was carried out. Liver, kidney, adrenals, spleen and gonads were weighed. Terminal hematology, serum biochemistry and histology of the liver, spleen and bone marrow was done.

Structures are written as SMILES.

With `O=C1c2ccc(O)c(Br)c2OCC1c1ccc(O)cc1` (stereo not shown) [Compound 1, 3-(4-hydroxyphenyl)-7-hydroxy-8-bromo-chroman-4-one], the evidence of toxicity result was “no evidence of toxicity of any kind”.
